Tests used:
[1] = test system: E. coli, S. aureus and B. cereus, and LAB; settings: compared with CA and FA; cited from earlier work
[2] = Color expression of cis and trans isomers of acylated delphinidin at different pH; format: physicochemical; settings: for color expression: pH 4
Experimental: Delphinidin-3-(p-coumaroyl)-rutinoside-5-glucoside was extracted from Chinese eggplants, semi-purified and taken to 400 mg/L in methanol. Extract aliquots were placed in sealed quartz cuvettes, with the clear side facing up, and irradiated with different light sources (sunlight, D65 lamp, and UV chamber at 365 nm) for up to 112 hrs. Pigment isomerization was monitored over time on a uHPLC-PDA-MS/MS, using a pentafluorophenyl column and positive electrospray ionization on a triple quadrupole. Cis and trans-delphinidin-derivatives were isolated to compare their color stability and strength. Color was measured on a ColorQuest XE spectrophotometer, using 10° observer angle, illuminant D65, and total transmittance. Data was collected in triplicates and analyzed by two-way ANOVA.

Row | Compound | antibacterial activity [1] | color expression [2] | color intensity ([2]; pH 5)
1 | O=C(O)/C=C/c1ccc(O)cc1 [pCA, p-coumaric acid] | stronger antibacterial activity |  | 
2 | Delphinidin-3-(p-coumaroyl)-rutinoside-5-glucoside [cis-delphinidin] |  | noticeable color | greater color intensity than the trans-isomer
3 | Delphinidin-3-(p-coumaroyl)-rutinoside-5-glucoside [trans-delphinidin] |  | bleached completely | 

Reference: patent US20230119068A1, “METHODS FOR RAPID SYNTHESIS OF PYRANOANTHOCYANINS” (Ohio State Innovation Foundation, priority 2020, published 2023)
